Data published in US11932610B1, “4-(5-(3-fluorophenyl)-4-phenyl-4H-1,2,4-triazol-3-ylthio)butanoic acid as an antimicrobial compound” (priority 2023, dated 2024).

Columns and labels:
[1] = test system: Bacillus cereus, Staphylococcus aureus, Pseudomonas aeruginosa, Escherichia coli, Aspergillus flavus, Chrysosporium keratinophilum; test: agar plate disc-diffusion antimicrobial test; assay type: cell-based; details: 6 mm discs wetted with 10 μL of 10 mg/mL in DMSO; 37° C., 48 h (72 h for fungi); DMSO control zone subtracted
Method: The agar plate disc-diffusion method was applied. Sterilized filter papers (6 mm in diameter) were wetted with 10 μL of a solution of 4-(5-(3-fluorophenyl)-4-phenyl-4H-1,2,4-triazol-3-ylthio)butanoic acid (III) to be tested, containing 10 mg/mL in DMSO, and the discs were allowed to air dry. The discs were then placed onto the surface of agar plates (nutrient agar for bacteria and Sabouraud's dextrose agar for fungi) seeded with the test organism. Each plate contained 15 mLof the agar medium, previously seeded with 0.2 mL of the broth culture of each organism pregrown for 18 h. The plates were incubated at 37° C. for 48 h, and 72 h for fungi. The inhibition zones was measured in mm. Discs impregnated with DMSO were used as a control, and its inhibition zone was subtracted from the tested compound actual inhibition zone. […] The antibacterial activity was screened against gram positive bacteria namely Bacillus cereus and Staphylococcus aureus and gram-negative bacterial strains namely Pseudomonas aeruginosa and Escherichia coli, while the antifungal activity was screened against Aspergillus flavus and Chrysosporium keratinophilum.

O=C(O)CCCSc1nnc(-c2cccc(F)c2)n1-c1ccccc1 [III, 4-(5-(3-fluorophenyl)-4-phenyl-4H-1,2,4-triazol-3-ylthio)butanoic acid]
melting point: 173 °C | antimicrobial activities against different microbes [1]: excellent antimicrobial activities
